Measured values from ChEMBL document CHEMBL4813911 (J Med Chem, 2020).
Blank lines part the entries; values can stand above or below the compound they belong to.

Experiments:
[1] = tested on: MV4-11; assay: Antiproliferative activity against human MV4-11 cells incubated for 48 hrs by CellTiter-Fluor cell viability assay; format: functional, cell-based; settings: MV4-11, 48 h
[2] = target: T1, MAO-A (Homo sapiens, UniProt P21397); assay: Inhibition of human recombinant MAO-A expressed in Pichia pastoris using kynuramine as substrate at 100 uM by horseradish peroxidase coupled-assay relative to control; settings: probe kynuramine
T1 sequence (P21397 whole entry): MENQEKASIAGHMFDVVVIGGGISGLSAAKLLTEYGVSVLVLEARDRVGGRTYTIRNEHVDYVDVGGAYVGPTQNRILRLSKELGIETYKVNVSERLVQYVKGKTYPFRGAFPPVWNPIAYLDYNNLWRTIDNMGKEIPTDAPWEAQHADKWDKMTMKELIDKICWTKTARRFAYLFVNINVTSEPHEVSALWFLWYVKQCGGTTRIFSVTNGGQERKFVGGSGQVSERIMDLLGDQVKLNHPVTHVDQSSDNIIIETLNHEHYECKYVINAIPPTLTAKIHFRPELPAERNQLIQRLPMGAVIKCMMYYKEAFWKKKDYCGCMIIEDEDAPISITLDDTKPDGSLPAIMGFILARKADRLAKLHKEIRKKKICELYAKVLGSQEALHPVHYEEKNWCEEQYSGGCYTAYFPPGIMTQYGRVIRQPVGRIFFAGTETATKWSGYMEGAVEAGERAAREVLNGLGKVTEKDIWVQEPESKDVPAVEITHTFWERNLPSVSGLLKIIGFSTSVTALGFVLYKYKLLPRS

[3] = target: T2, MAO-B (Homo sapiens, UniProt P27338); assay: Inhibition of human recombinant MAO-B expressed in Pichia pastoris using benzylamine as substrate at 100 uM by horseradish peroxidase coupled-assay relative to control; settings: probe benzylamine
T2 sequence (P27338 whole entry): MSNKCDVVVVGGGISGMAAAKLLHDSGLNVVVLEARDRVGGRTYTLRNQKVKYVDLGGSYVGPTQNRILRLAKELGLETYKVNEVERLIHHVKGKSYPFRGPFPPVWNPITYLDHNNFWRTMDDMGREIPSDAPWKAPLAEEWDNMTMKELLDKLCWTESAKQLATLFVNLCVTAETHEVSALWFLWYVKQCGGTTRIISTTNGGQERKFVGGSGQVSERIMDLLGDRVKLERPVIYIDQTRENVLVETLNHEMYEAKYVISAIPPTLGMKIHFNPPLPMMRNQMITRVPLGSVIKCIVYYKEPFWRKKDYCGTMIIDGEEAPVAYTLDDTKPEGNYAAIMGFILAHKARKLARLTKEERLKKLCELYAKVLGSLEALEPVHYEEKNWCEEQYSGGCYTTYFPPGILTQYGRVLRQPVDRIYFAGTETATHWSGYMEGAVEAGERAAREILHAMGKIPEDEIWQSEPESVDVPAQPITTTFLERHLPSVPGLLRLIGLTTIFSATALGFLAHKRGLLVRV

[4] = tested on: NB-4; assay: Antiproliferative activity against human NB4 cells incubated for 48 hrs by CellTiter-Fluor cell viability assay; format: functional, cell-based; settings: NB-4, 48 h
[5] = tested on: HCT-116; assay: Antiproliferative activity against human HCT116 cells after 48 hrs by MTT assay; format: functional
[6] = tested on: KYSE-150 cell line; assay: Antiproliferative activity against human KYSE150 cells after 48 hrs by MTT assay; format: functional
[7] = target: T3, Amine oxidase [flavin-containing] A (Homo sapiens, UniProt P21397); assay: biochemical
T3 sequence (P21397 whole entry): T1 sequence (P21397 whole entry)

[8] = tested on: PC-3; assay: Antiproliferative activity against human PC-3 cells after 48 hrs by MTT assay; format: functional
[9] = tested on: SH-SY5Y; assay: Antiproliferative activity against human SH-SY5Y cells after 48 hrs by MTT assay; format: functional
[10] = tested on: HeLa; assay: Antiproliferative activity against human HeLa cells after 48 hrs by MTT assay; format: functional
[11] = target: T4, Amine oxidase [flavin-containing] B (Homo sapiens, UniProt P27338); assay: biochemical
T4 sequence (P27338 whole entry): T2 sequence (P27338 whole entry)

[12] = target: T3, Amine oxidase [flavin-containing] A
[13] = target: T5, Lysine-specific histone demethylase 1A (Homo sapiens, UniProt O60341)
[14] = target: T4, Amine oxidase [flavin-containing] B; assay: Inhibition of MAO-B (unknown origin) measured after 60 mins by luciferin-based luminescence assay
[15] = target: T5, Lysine-specific histone demethylase 1A; remark: listed apart in the source
[16] = target: T5, Lysine-specific histone demethylase 1A; remark: listed apart in the source
[17] = target: T4, Amine oxidase [flavin-containing] B; assay: Inhibition of human MAO-B expressed in baculovirus infected BTI insect cells by fluorescence method
[18] = target: T3, Amine oxidase [flavin-containing] A; assay: Inhibition of human MAO-A expressed in baculovirus infected BTI insect cells by fluorescence method
[19] = tested on: MV4-11; assay: Antiproliferative activity against human MV4-11 cells incubated for 6 days by MTS assay; format: functional, cell-based; settings: MV4-11, 144 h
[20] = target: T3, Amine oxidase [flavin-containing] A; assay: Inhibition of MAO-A (unknown origin) preincubated for 20 mins using 5-hydroxytryptamine as substrate followed by substrate addition and measured after 60 mins
[21] = target: T5, Lysine-specific histone demethylase 1A; assay: Inhibition of human LSD1 expressed in Escherichia coli BL21 (DE3) cells using (ARTK(diMe)QTARKSTGGKAPRKQLA peptide as substrate incubated for 30 mins by HRP reagent based fluorescence method
[22] = target: T4, Amine oxidase [flavin-containing] B; assay: Inhibition of MAO-B (unknown origin) using benzylamine as substrate preincubated for 20 mins followed by substrate addition and measured after 60 mins
[23] = target: T4, Amine oxidase [flavin-containing] B; assay: biochemical; remark: listed apart in the source
[24] = target: T6, Lysine-specific histone demethylase 2 (Homo sapiens, UniProt Q8NB78); assay: Inhibition of LSD2 (unknown origin) using Lys4-dimethylated H3 (1-20) peptide as substrate incubated for 30 mins by peroxidase-coupled assay
T6 sequence (Q8NB78 whole entry): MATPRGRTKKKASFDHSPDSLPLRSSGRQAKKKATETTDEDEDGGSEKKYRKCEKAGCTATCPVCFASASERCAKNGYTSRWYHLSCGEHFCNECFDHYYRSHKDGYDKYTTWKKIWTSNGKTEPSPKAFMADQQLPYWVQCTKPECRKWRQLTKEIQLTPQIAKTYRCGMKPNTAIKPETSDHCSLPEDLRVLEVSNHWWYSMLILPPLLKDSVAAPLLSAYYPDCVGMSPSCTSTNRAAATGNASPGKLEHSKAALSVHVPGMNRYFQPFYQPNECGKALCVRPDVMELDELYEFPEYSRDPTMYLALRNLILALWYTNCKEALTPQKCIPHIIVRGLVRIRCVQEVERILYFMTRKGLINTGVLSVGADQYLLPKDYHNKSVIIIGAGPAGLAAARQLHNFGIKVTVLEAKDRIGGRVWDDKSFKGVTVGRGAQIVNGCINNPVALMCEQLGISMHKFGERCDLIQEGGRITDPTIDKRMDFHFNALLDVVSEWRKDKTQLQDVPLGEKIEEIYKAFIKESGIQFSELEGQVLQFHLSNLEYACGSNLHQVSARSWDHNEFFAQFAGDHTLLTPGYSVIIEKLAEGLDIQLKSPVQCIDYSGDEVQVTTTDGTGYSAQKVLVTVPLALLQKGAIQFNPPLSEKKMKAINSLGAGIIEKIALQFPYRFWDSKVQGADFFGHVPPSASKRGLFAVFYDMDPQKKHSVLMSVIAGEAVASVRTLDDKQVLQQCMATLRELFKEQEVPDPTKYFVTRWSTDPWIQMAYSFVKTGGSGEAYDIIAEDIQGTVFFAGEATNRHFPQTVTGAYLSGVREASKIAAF

[25] = target: T3, Amine oxidase [flavin-containing] A; assay: Inhibition of human MAO-A expressed in baculovirus infected BTI insect cells using tyramine as substrate incubated for 30 mins by peroxidase-coupled assay
[26] = target: T3, Amine oxidase [flavin-containing] A; assay: Inhibition of human MAO-A expressed in baculovirus infected BTI insect cells preincubated for 10 mins followed by substrate addition and measured after 60 mins by luciferin-based luminescence assay
[27] = target: T4, Amine oxidase [flavin-containing] B; assay: Inhibition of human MAO-B expressed in baculovirus infected BTI insect cells preincubated for 10 mins followed by substrate addition and measured after 60 mins by luciferin-based luminescence assay
[28] = tested on: MV4-11; assay: Antiproliferative activity against human MV4-11 cells incubated for 72 hrs by CellTiter-glo assay; format: functional, cell-based; settings: MV4-11, 72 h
[29] = tested on: OCI-AML-3; assay: Antiproliferative activity against human OCI-AML3 cells incubated for 72 hrs by CellTiter-glo assay; format: functional, cell-based; settings: OCI-AML-3, 72 h
[30] = tested on: HL-60; assay: Antiproliferative activity against human HL-60 cells incubated for 72 hrs by CellTiter-glo assay; format: functional, cell-based; settings: HL-60, 72 h
[31] = tested on: U-937; assay: Antiproliferative activity against human U-937 cells incubated for 72 hrs by CellTiter-glo assay; format: functional, cell-based; settings: U-937, 72 h
[32] = tested on: THP-1; assay: Antiproliferative activity against human THP-1 cells incubated for 72 hrs by CellTiter-glo assay; format: functional, cell-based; settings: THP-1, 72 h
[33] = tested on: Kasumi 1; assay: Antiproliferative activity against human KASUMI-1 cells incubated for 72 hrs by CellTiter-glo assay; format: functional, cell-based; settings: Kasumi 1, 72 h
[34] = target: T5, Lysine-specific histone demethylase 1A; assay: Inhibition of His-tagged full length human LSD1 expressed in Escherichia coli BL21 RIPL Codon Plus (DE3) using ARTK(me2)QTARKSTGGKAPRKQLA as substrate preincubated for 10 mins followed by substrate addition by amplex ultra red and HRP reagent based fluorescence method
[35] = target: T5, Lysine-specific histone demethylase 1A; assay: Inhibition of human LSD1 (172 to 833 residues) using Lys4-dimethylated H3 (1-20) peptide as substrate incubated for 30 mins by peroxidase-coupled assay

- IC50 [1]: 0.4 µM
- inhibition at 100 µM [2]: 37%
- inhibition at 100 µM [3]: 8%
SMILES: NC1CC1c1ccc(NC(=O)c2ccc(NC(=O)OCc3ccccc3)cc2)cc1 (centres undefined)
- IC50 [4]: 0.6 µM

- GI50 [5]: 6 µM
- IC50 [7]: 290 µM
- GI50 [8]: 6 µM
- GI50 [9]: 6 µM
- GI50 [10]: 6 µM
- IC50 [11]: > 1000 µM
SMILES: NC1CC1c1ccc(OCC[C@H](NC(=O)c2ccccc2)C(=O)NCc2ccccc2)cc1 (some centres undefined)
- GI50 [6]: 6 µM

- IC50 [12]: 12.9 µM
- IC50 [13]: 0.007 µM
- IC50 [14]: 10.8 µM
- IC50 [15]: 0.003 µM
- IC50 [16]: 0.031 µM
SMILES: CN1CCN(C(=O)CN[C@@H]2C[C@H]2c2ccc(F)nc2)CC1

- IC50 [17]: 32 µM
- IC50 [18]: 2.5 µM
SMILES: Fc1ccccc1CNC1CC12CCc1ccccc12 (centres undefined)

- IC50 [17]: 12 µM
- IC50 [18]: 5.9 µM
SMILES: COc1ccccc1CNC1CC12CCc1ccccc12 (centres undefined)

- Ki [23]: > 250 µM
- Ki [24]: > 250 µM
- Ki [35]: 0.56 µM
- Ki [25]: > 250 µM
SMILES: N[C@H]1CCN(C(=O)CNC2CC2c2cc(F)cc(F)c2OCc2ccccc2)C1 (some centres undefined)

Continued, compound first:

SMILES: COc1ccc(CNC2CC23CCc2ccccc23)c(Cl)c1OC (centres undefined)
- IC50 [17]: 7 µM
- IC50 [18]: 5 µM

SMILES: CCN(CC)S(=O)(=O)c1ccc([C@H]2C[C@@H]2NC(=O)OC(C)(C)C)cc1
- IC50 [19]: 4.9 µM
- IC50 [20]: 0.708 µM
- IC50 [21]: > 1 µM
- IC50 [22]: 0.655 µM

SMILES: CN1CCN(C(=O)CNC2CC2c2cc(F)cc(F)c2OCc2ccccc2)CC1 (centres undefined)
- Ki [23]: > 250 µM
- Ki [24]: > 250 µM
- Ki [25]: > 250 µM

SMILES: COc1ccc(Br)cc1CNC1CC12CCc1ccccc12 (centres undefined)
- IC50 [17]: 1.2 µM
- IC50 [18]: 3.7 µM

SMILES: Cn1cc(C(=O)Nc2ccc([C@@H]3C[C@H]3NCC3CC3)cc2)cn1
- IC50 [26]: > 100 µM
- IC50 [27]: > 100 µM

SMILES: N[C@@H]1C[C@H]1c1ccc(C(=O)NCc2ccccc2)cc1
- IC50 [28]: 0.18 µM
- IC50 [29]: 1.8 µM
- IC50 [30]: 1.7 µM
- IC50 [31]: 1.6 µM
- IC50 [32]: 0.1 µM
- IC50 [33]: 0.03 µM
- IC50 [34]: 0.3 µM
